# Values of other authors as cited in patent US20020144302A1 (priority 1996, published 2002).
# Conditions: man; daily dose around 200 mg (Vidal, 1996)
structure (smiles),measurement,value
CC(C)OC(=O)C(C)(C)Oc1ccc(C(=O)c2ccc(Cl)cc2)cc1 [fenofibrate],plasma concentration,about 15 μg/ml
